Measured values from patent US20240358668A1, “METHODS AND CO[…] AM[…] CARD[…] USING (R)-2-AMINO-3-PH[…]” (AXSOME THERAPEUTICS, INC., priority 2021, published 2024).
Marks after values point to notes of the source that are not given here.

Key:
[1] = tested on: participants with narcolepsy or OSA; assay: 1-year OLE study: adverse events; assay type: in vivo, human
Description: A 1-year open-label extension (OLE) study was performed with 374 participants to examined whether clinically significant weight loss (≥5%) in this population had favorable effects on biomarkers of cardiovascular risk compared to no such weight loss. The study measured changes in weight and BP (parent study baseline to OLE week 40) and clinical laboratory assessments (OLE baseline to week 40) in participants with narcolepsy (n=124) or OSA (n=250) who received solriamfetol at doses of 75, 150, or 300 mg/d.
Of 374 participants, 96 (25.7%) had ≥5% weight loss; among those without ≥5% weight loss (n=278), 34 (9.1% of total population) had ≥5% weight gain. Demographics were similar in those with and without weight loss (see Table 1 (demographics and baseline characteristics) and Table 2 (additional demographics and baseline characteristics)). […] Participants with weight loss had mean±SD reductions in SBP (−2.6±11.4 mmHg) and DBP (−1.0±9.0 mmHg), whereas participants without weight loss had increases of +0.65±12.5 mmHg and +1.2±8.7 mmHg, respectively (see Table 3 (blood pressure at baseline and week 40), Table 4 (systolic blood pressure (SBP) maximum changes from baseline to week 40), and Table 5 (diastolic blood pressure (DBP) maximum changes from baseline to week 40)). Adverse events are shown in Table 11 (adverse events in ≥5% of Combined Solriamfetol Participants).

[2] = tested on: adults with EDS associated with OSA; assay: Long-term OLE trial in OSA: vital signs, antihypertensive medication use, AEs of hypertension/increased BP; assay type: in vivo, human
Description: An exploratory analysis of data from one 12-week randomized, controlled trial (Schweitzer P K, et al. Am J Respir Crit Care Med. 2019; 199(11):1421-31) and 1 long-term open-label extension (OLE) trial in adults with EDS (Epworth Sleepiness Scale score ≥10) associated with OSA (Malhotra A, et al. Sleep. 2020; 43(2):zsz220) was carried out. Participants with current/prior use of primary OSA therapy (positive airway pressure [PAP], oral pressure therapy, oral appliance, or upper airway stimulation) were eligible, regardless of the level of adherence to primary OSA therapy; participants who had not attempted to use primary OSA therapy were excluded. Adherence to primary OSA therapy was defined as PAP use ≥4 hours/night on ≥70% of nights/week, historical report (with investigator concurrence) of oral appliance use on ≥70% of nights, or effective surgical intervention. Nonadherence to primary OSA therapy was defined as device use at a level lower than specific above, no device use at all, or surgical intervention deemed no longer effective. Participants received placebo or solriamfetol 37.5 (12-week trial only), 75, 150, or 300 mg/day for 12 weeks (12-week trial) or ≤40 weeks (OLE trial). Vital signs, antihypertensive medication use, and adverse events (AEs) were monitored throughout the studies. Baseline demographics, CV comorbidities, and concomitant medications, the percentage of participants who initiated antihypertensive medication use during treatment, and the incidence of and discontinuations due to AEs of hypertension/increased BP were summarized for the safety population (participants who received ≥1 dose of study medication).

[3] = Weight loss <5% at Week 40, 75 mg/d
[4] = Weight loss <5% at Week 40, 150 mg/d
[5] = Weight loss <5% at Week 40, 300 mg/d
[6] = Weight loss <5% at Week 40, all doses
[7] = Weight loss ≥5% at Week 40, 75 mg/d
[8] = Weight loss ≥5% at Week 40, 150 mg/d
[9] = Weight loss ≥5% at Week 40, 300 mg/d
[10] = Weight loss ≥5% at Week 40, all doses

NC(=O)OC[C@H](N)Cc1ccccc1 [Solriamfetol, (R)-2-amino-3-phenylpropyl carbamate]
AE of interest: Decreased appetite [1, 3]: 1(4.8) n(%) | Common AEs: Anxiety [1, 3]: 0 n(%) | Common AEs: Dizziness [1, 3]: 2(9.5) n(%) | Common AEs: Dry mouth [1, 3]: 2(9.5) n(%) | Common AEs: Feeling jittery [1, 3]: 2(9.5) n(%) | Common AEs: Headache [1, 3]: 3(14.3) n(%) | Common AEs: Influenza [1, 3]: 0 n(%) | Common AEs: Insomnia [1, 3]: 4(19.0) n(%) | Common AEs: Nasopharyngitis [1, 3]: 3(14.3) n(%) | Common AEs: Nausea [1, 3]: 0 n(%) | Common AEs: Sinusitis [1, 3]: 1(4.8) n(%) | Common AEs: URTI (Upper Respiratory Tract Infection) [1, 3]: 0 n(%) | AE of interest: Decreased appetite [1, 4]: 5(4.8) n(%) | Common AEs: Anxiety [1, 4]: 10(9.5) n(%) | Common AEs: Dizziness [1, 4]: 2(1.9) n(%) | Common AEs: Dry mouth [1, 4]: 6(5.7) n(%) | Common AEs: Feeling jittery [1, 4]: 7(6.7) n(%) | Common AEs: Headache [1, 4]: 9(8.6) n(%) | Common AEs: Influenza [1, 4]: 3(2.9) n(%) | Common AEs: Insomnia [1, 4]: 14(13.3) n(%) | Common AEs: Nasopharyngitis [1, 4]: 14(13.3) n(%) | Common AEs: Nausea [1, 4]: 12(11.4) n(%) | Common AEs: Sinusitis [1, 4]: 2(1.9) n(%) | Common AEs: URTI (Upper Respiratory Tract Infection) [1, 4]: 6(5.7) n(%) | AE of interest: Decreased appetite [1, 5]: 6(3.9) n(%) | Common AEs: Anxiety [1, 5]: 2(1.3) n(%) | Common AEs: Dizziness [1, 5]: 4(2.6) n(%) | Common AEs: Dry mouth [1, 5]: 5(3.3) n(%) | Common AEs: Feeling jittery [1, 5]: 7(4.6) n(%) | Common AEs: Headache [1, 5]: 15(9.9) n(%) | Common AEs: Influenza [1, 5]: 2(1.3) n(%) | Common AEs: Insomnia [1, 5]: 3 (2.0) n(%) | Common AEs: Nasopharyngitis [1, 5]: 15(9.9) n(%) | Common AEs: Nausea [1, 5]: 8 (5.3) n(%) | Common AEs: Sinusitis [1, 5]: 11(7.2) n(%) | Common AEs: URTI (Upper Respiratory Tract Infection) [1, 5]: 14(9.2) n(%) | AE of interest: Decreased appetite [1, 6]: 12(4.3) n(%) | Common AEs: Anxiety [1, 6]: 12(4.3) n(%) | Common AEs: Dizziness [1, 6]: 8(2.9) n(%) | Common AEs: Dry mouth [1, 6]: 13(4.7) n(%) | Common AEs: Feeling jittery [1, 6]: 16(5.8) n(%) | Common AEs: Headache [1, 6]: 27(9.7) n(%) | Common AEs: Influenza [1, 6]: 5(1.8) n(%) | Common AEs: Insomnia [1, 6]: 21(7.6) n(%) | Common AEs: Nasopharyngitis [1, 6]: 32(11.5) n(%) | Common AEs: Nausea [1, 6]: 20(7.2) n(%) | Common AEs: Sinusitis [1, 6]: 14(5.0) n(%) | Common AEs: URTI (Upper Respiratory Tract Infection) [1, 6]: 20(7.2) n(%) | AE of interest: Decreased appetite [1, 7]: 0 n(%) | Common AEs: Anxiety [1, 7]: 0 n(%) | Common AEs: Dizziness [1, 7]: 0 n(%) | Common AEs: Dry mouth [1, 7]: 1(100) n(%) | Common AEs: Feeling jittery [1, 7]: 0 n(%) | Common AEs: Headache [1, 7]: 0 n(%) | Common AEs: Influenza [1, 7]: 0 n(%) | Common AEs: Insomnia [1, 7]: 0 n(%) | Common AEs: Nasopharyngitis [1, 7]: 0 n(%) | Common AEs: Nausea [1, 7]: 0 n(%) | Common AEs: Sinusitis [1, 7]: 0 n(%) | Common AEs: URTI (Upper Respiratory Tract Infection) [1, 7]: 0 n(%) | AE of interest: Decreased appetite [1, 8]: 0 n(%) | Common AEs: Anxiety [1, 8]: 3(13.6) n(%) | Common AEs: Dizziness [1, 8]: 2(9.1) n(%) | Common AEs: Dry mouth [1, 8]: 1(4.5) n(%) | Common AEs: Feeling jittery [1, 8]: 2(9.1) n(%) | Common AEs: Headache [1, 8]: 5(22.7) n(%) | Common AEs: Influenza [1, 8]: 1(4.5) n(%) | Common AEs: Insomnia [1, 8]: 2(9.1) n(%) | Common AEs: Nasopharyngitis [1, 8]: 0 n(%) | Common AEs: Nausea [1, 8]: 4(18.2) n(%) | Common AEs: Sinusitis [1, 8]: 3(13.6) n(%) | Common AEs: URTI (Upper Respiratory Tract Infection) [1, 8]: 1(4.5) n(%) | AE of interest: Decreased appetite [1, 9]: 2(2.7) n(%) | Common AEs: Anxiety [1, 9]: 3(4.1) n(%) | Common AEs: Dizziness [1, 9]: 3(4.1) n(%) | Common AEs: Dry mouth [1, 9]: 7(9.6) n(%) | Common AEs: Feeling jittery [1, 9]: 1(1.4) n(%) | Common AEs: Headache [1, 9]: 7(9.6) n(%) | Common AEs: Influenza [1, 9]: 5(6.8) n(%) | Common AEs: Insomnia [1, 9]: 5(6.8) n(%) | Common AEs: Nasopharyngitis [1, 9]: 8(11.0) n(%) | Common AEs: Nausea [1, 9]: 3(4.1) n(%) | Common AEs: Sinusitis [1, 9]: 3(4.1) n(%) | Common AEs: URTI (Upper Respiratory Tract Infection) [1, 9]: 3(4.1) n(%) | AE of interest: Decreased appetite [1, 10]: 2(2.1) n(%) | Common AEs: Anxiety [1, 10]: 6(6.3) n(%) | Common AEs: Dizziness [1, 10]: 5(5.2) n(%) | Common AEs: Dry mouth [1, 10]: 9(9.4) n(%) | Common AEs: Feeling jittery [1, 10]: 3(3.1) n(%) | Common AEs: Headache [1, 10]: 12(12.5) n(%) | Common AEs: Influenza [1, 10]: 6(6.3) n(%) | Common AEs: Insomnia [1, 10]: 7(7.3) n(%) | Common AEs: Nasopharyngitis [1, 10]: 8(8.3) n(%) | Common AEs: Nausea [1, 10]: 7(7.3) n(%) | Common AEs: Sinusitis [1, 10]: 6(6.3) n(%) | Common AEs: URTI (Upper Respiratory Tract Infection) [1, 10]: 4(4.2) n(%) | change in DBP from baseline to week 40 ([2]; OLE): 0.29 mm Hg | change in HR from baseline to week 40 ([2]; OLE): −1.94 bpm | change in SBP from baseline to week 40 ([2]; OLE): −0.49 mm Hg | total participants with AEs of hypertension/increased BP ([2]; OLE): 22 participants | serious AE of cerebrovascular accident ([2]; OLE trial): 1 | Discontinuation due to AE of HTN/increased BP ([2]; OLE, 75 mg): 1 (0.2)^d n (%) | Initiated anti-HTN ([2]; OLE, 75 mg): 3 (6.1) n (%) | AE of HTN/increased BP ([2]; OLE, 75 mg, % of participants that ever received the dose level (n = 417)): 4 (1.0) n (%) | Discontinuation due to AE of HTN/increased BP, (%) ([2]; OLE, 150 mg): (0.2)^d % | Initiated anti-HTN ([2]; OLE, 150 mg): 2 (1.4) n (%) | AE of HTN/increased BP, (%) ([2]; OLE, 150 mg, % of participants that ever received the dose level (n = 402)): (1.5) % | Discontinuation due to AE of HTN/increased BP, (%) ([2]; OLE, 300 mg): (0.3)^e % | Initiated anti-HTN ([2]; OLE, 300 mg): 3 (1.3) n (%) | AE of HTN/increased BP, (%) ([2]; OLE, 300 mg, % of participants that ever received the dose level (n = 326)): (3.7) %
